# ChEMBL document CHEMBL1201862, “PubChem BioAssay data set” (2004)
#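 Cultured in 96-well plates, cells were exposed to test compound for 48 hours across five concentrations. Abbreviation: GI50, concentration required for 50% inhibition of growth.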 The source made the active and inactive calls. Rule as the data show it: active = GI50 up to about 1.1 µM and inactive = higher.
# Columns and labels:
# Assay in all cases: NCI tumour cell line growth inhibition, 48 h
# UACC-257 = system: UACC-257
# K562 = system: K562
# UACC-62 = system: UACC-62
# OVCAR-3 = system: OVCAR-3
# SF-268 = system: SF-268
# CCRF-CEM = system: CCRF-CEM
# M14 = system: M14
# SK-MEL-2 = system: SK-MEL-2
# HOP-62 = system: HOP-62
# MDA-MB-231 = system: MDA-MB-231
# MOLT-4 = system: MOLT-4
# SK-MEL-5 = system: SK-MEL-5
# A498 = system: A498
# A549 = system: A549
# SK-MEL-28 = system: SK-MEL-28
# 786-0 = system: 786-0
# COLO 205 = system: COLO 205
# TK-10 = system: TK-10
# HOP-92 = system: HOP-92
# HCC 2998 = system: HCC 2998
# NCI-H23 = system: NCI-H23
# MDA-N = system: MDA-N
# OVCAR-5 = system: OVCAR-5
# OVCAR-4 = system: OVCAR-4
# UO-31 = system: UO-31
# Malme-3M = system: Malme-3M
# HT-29 = system: HT-29
# SN12C = system: SN12C
# T47D = system: T47D
# SK-OV-3 = system: SK-OV-3
# RPMI-8226 = system: RPMI-8226
# NCI/ADR-RES = system: NCI/ADR-RES
# SNB-19 = system: SNB-19
# U-251 = system: U-251
# MDA-MB-435 = system: MDA-MB-435
# DU-145 = system: DU-145
# HCT-116 = system: HCT-116
# MCF7 = system: MCF7
# PC-3 = system: PC-3
# SNB-75 = system: SNB-75
# NCI-H522 = system: NCI-H522
# NCI-H460 = system: NCI-H460
# ACHN = system: ACHN
# KM12 = system: KM12
# BT-549 = system: BT-549
# SF-295 = system: SF-295
# EKVX = system: EKVX
# CAKI-1 = system: CAKI-1
# HCT-15 = system: HCT-15
# LOX IMVI = system: LOX IMVI
# NCI-H226 = system: NCI-H226
# HL-60 = system: HL-60
# IGROV-1 = system: IGROV-1
# SW-620 = system: SW-620
# SF-539 = system: SF-539
# OVCAR-8 = system: OVCAR-8
# RXF 393 = system: RXF 393
compound,measurement,setting,value
COC(=O)C1=C(CCCCO[Si](C)(C)C(C)(C)C)NC(=O)N2[C@@H](CCOCc3ccccc3)CC[C@H]12,GI50,UACC-257,21.1 µM (inactive)
same,GI50,K562,25.1 µM (inactive)
same,GI50,UACC-62,24.3 µM (inactive)
same,GI50,OVCAR-3,13.4 µM (inactive)
same,GI50,SF-268,25.8 µM (inactive)
same,GI50,CCRF-CEM,17.9 µM (inactive)
same,GI50,M14,25.8 µM (inactive)
same,GI50,SK-MEL-2,16.2 µM (inactive)
same,GI50,HOP-62,24.2 µM (inactive)
same,GI50,MDA-MB-231,18.2 µM (inactive)
same,GI50,MOLT-4,18.4 µM (inactive)
same,GI50,SK-MEL-5,10.3 µM (inactive)
same,GI50,A498,53 µM (inactive)
same,GI50,A549,14.8 µM (inactive)
same,GI50,SK-MEL-28,30.5 µM (inactive)
same,GI50,786-0,15.9 µM (inactive)
same,GI50,COLO 205,18 µM (inactive)
same,GI50,TK-10,40.3 µM (inactive)
same,GI50,HOP-92,15.5 µM (inactive)
same,GI50,HCC 2998,24.4 µM (inactive)
same,GI50,NCI-H23,7.98 µM (inactive)
same,GI50,MDA-N,17.6 µM (inactive)
same,GI50,OVCAR-5,33.1 µM (inactive)
same,GI50,OVCAR-4,27.5 µM (inactive)
same,GI50,UO-31,19.5 µM (inactive)
same,GI50,Malme-3M,19.4 µM (inactive)
same,GI50,HT-29,12.3 µM (inactive)
same,GI50,SN12C,16.7 µM (inactive)
same,GI50,T47D,15.8 µM (inactive)
same,GI50,SK-OV-3,45.3 µM (inactive)
same,GI50,RPMI-8226,23.4 µM (inactive)
same,GI50,NCI/ADR-RES,15.3 µM (inactive)
same,GI50,SNB-19,23.6 µM (inactive)
same,GI50,U-251,14.4 µM (inactive)
same,GI50,MDA-MB-435,24 µM (inactive)
same,GI50,DU-145,12.8 µM (inactive)
same,GI50,HCT-116,10.9 µM (inactive)
same,GI50,MCF7,27 µM (inactive)
same,GI50,PC-3,21.1 µM (inactive)
same,GI50,SNB-75,25.2 µM (inactive)
same,GI50,NCI-H522,11.1 µM (inactive)
same,GI50,NCI-H460,25.9 µM (inactive)
same,GI50,ACHN,29.1 µM (inactive)
same,GI50,KM12,18.3 µM (inactive)
same,GI50,BT-549,20.5 µM (inactive)
same,GI50,SF-295,26 µM (inactive)
same,GI50,EKVX,15.8 µM (inactive)
same,GI50,CAKI-1,16.8 µM (inactive)
same,GI50,HCT-15,17.8 µM
CC(=O)/C(=C/n1c(=S)sc2ccccc21)C(=O)Nc1ccccc1C,GI50,UACC-257,> 100 µM (inactive)
same,GI50,UACC-62,> 100 µM (inactive)
same,GI50,OVCAR-3,59.4 µM (inactive)
same,GI50,SF-268,> 100 µM (inactive)
same,GI50,M14,> 100 µM (inactive)
same,GI50,SK-MEL-2,> 100 µM (inactive)
same,GI50,HOP-62,> 100 µM (inactive)
same,GI50,LOX IMVI,> 100 µM (inactive)
same,GI50,MDA-MB-231,> 100 µM (inactive)
same,GI50,MOLT-4,> 100 µM (inactive)
same,GI50,SK-MEL-5,39.7 µM (inactive)
same,GI50,A498,> 100 µM (inactive)
same,GI50,NCI-H226,31.1 µM (inactive)
same,GI50,A549,> 100 µM (inactive)
same,GI50,HL-60,31.6 µM (inactive)
same,GI50,SK-MEL-28,> 100 µM (inactive)
same,GI50,786-0,> 100 µM (inactive)
same,GI50,COLO 205,> 100 µM (inactive)
same,GI50,TK-10,> 100 µM (inactive)
same,GI50,HOP-92,41.1 µM (inactive)
same,GI50,HCC 2998,> 100 µM (inactive)
same,GI50,NCI-H23,> 100 µM (inactive)
same,GI50,MDA-N,> 100 µM (inactive)
same,GI50,IGROV-1,59.8 µM (inactive)
same,GI50,OVCAR-5,> 100 µM (inactive)
same,GI50,OVCAR-4,> 100 µM (inactive)
same,GI50,UO-31,79.6 µM (inactive)
same,GI50,HT-29,> 100 µM (inactive)
same,GI50,SN12C,> 100 µM (inactive)
same,GI50,T47D,40.9 µM (inactive)
same,GI50,SK-OV-3,> 100 µM (inactive)
same,GI50,NCI/ADR-RES,> 100 µM (inactive)
same,GI50,SNB-19,> 100 µM (inactive)
same,GI50,SW-620,> 100 µM (inactive)
same,GI50,U-251,> 100 µM (inactive)
same,GI50,MDA-MB-435,> 100 µM (inactive)
same,GI50,DU-145,> 100 µM (inactive)
same,GI50,HCT-116,> 100 µM (inactive)
same,GI50,MCF7,> 100 µM (inactive)
same,GI50,SNB-75,> 100 µM (inactive)
same,GI50,SF-539,> 100 µM (inactive)
same,GI50,NCI-H460,> 100 µM (inactive)
same,GI50,ACHN,> 100 µM (inactive)
same,GI50,KM12,> 100 µM (inactive)
same,GI50,BT-549,> 100 µM (inactive)
same,GI50,SF-295,> 100 µM (inactive)
same,GI50,OVCAR-8,> 100 µM (inactive)
same,GI50,EKVX,> 100 µM (inactive)
same,GI50,RXF 393,> 100 µM (inactive)
same,GI50,CAKI-1,48 µM (inactive)
same,GI50,HCT-15,> 100 µM
O=C1Nc2ccccc2/C1=N/Nc1nc(-c2ccc([N+](=O)[O-])cc2)cs1,GI50,UACC-257,32.1 µM (inactive)
same,GI50,OVCAR-3,30.8 µM (inactive)
same,GI50,M14,15 µM (inactive)
same,GI50,SK-MEL-2,26.9 µM (inactive)
same,GI50,HOP-62,> 100 µM (inactive)
same,GI50,LOX IMVI,35.6 µM (inactive)
same,GI50,MDA-MB-231,40.9 µM (inactive)
same,GI50,MOLT-4,51.9 µM (inactive)
same,GI50,SK-MEL-5,31.7 µM (inactive)
same,GI50,NCI-H226,38.9 µM (inactive)
same,GI50,A549,30.1 µM (inactive)
same,GI50,SK-MEL-28,29.7 µM (inactive)
same,GI50,786-0,19.4 µM (inactive)
same,GI50,COLO 205,44.2 µM (inactive)
same,GI50,TK-10,17.5 µM (inactive)
same,GI50,HOP-92,17.4 µM (inactive)
same,GI50,HCC 2998,21.9 µM (inactive)
same,GI50,NCI-H23,27.7 µM (inactive)
same,GI50,MDA-N,27 µM (inactive)
same,GI50,IGROV-1,18.7 µM (inactive)
same,GI50,OVCAR-5,22 µM (inactive)
same,GI50,OVCAR-4,18.1 µM (inactive)
same,GI50,UO-31,11.4 µM (inactive)
same,GI50,HT-29,22.9 µM (inactive)
same,GI50,SN12C,27 µM (inactive)
same,GI50,T47D,29.1 µM (inactive)
same,GI50,SK-OV-3,63.1 µM (inactive)
same,GI50,NCI/ADR-RES,15.6 µM (inactive)
same,GI50,SNB-19,44.1 µM (inactive)
same,GI50,SW-620,32.7 µM (inactive)
same,GI50,U-251,57 µM (inactive)
same,GI50,MDA-MB-435,24.7 µM (inactive)
same,GI50,DU-145,26.5 µM (inactive)
same,GI50,HCT-116,29.6 µM (inactive)
same,GI50,MCF7,35.3 µM (inactive)
same,GI50,PC-3,24 µM (inactive)
same,GI50,SNB-75,7.45 µM (inactive)
same,GI50,SF-539,17.1 µM (inactive)
same,GI50,NCI-H460,11 µM (inactive)
same,GI50,ACHN,13.3 µM (inactive)
same,GI50,KM12,28.5 µM (inactive)
same,GI50,BT-549,15.6 µM (inactive)
same,GI50,SF-295,24.1 µM (inactive)
same,GI50,OVCAR-8,16.8 µM (inactive)
same,GI50,EKVX,61 µM (inactive)
same,GI50,CAKI-1,17.9 µM (inactive)
same,GI50,HCT-15,14.5 µM
